The record followed here is patent US4983600A, “Heterocyclic compounds useful as 5-HT3 antagonists” (John Wyeth & Brother Limited, priority 1987, dated 1991).

Test [1] is described as follows: potential anxiolytic activity: mouse exploratory activity in a two-compartment light/dark box. The following applies: mice, Student's unpaired t-test vs vehicle, *P<0.05, **P<0.01, ***P<0.001. The format is in vivo. The procedure:
The compounds of the invention are tested for potential anxiolytic activity by a test procedure measuring mouse exploratory activity in a two-compartment light/dark box based upon the procedure of B Costall et al, Neuropharmacology, 1987, 26, 195-200 and J N Crawley et al, Pharmac. Biochem. Behav., 1980, 13, 167-170. The test involves observing groups of mice placed in an open topped box, one third of which is painted black and illuminated under a dim red light and partitioned from the remainder of the box which is painted white and brightly illuminated. Access between the two sections is via an opening in the centre of the partition. The groups of mice are treated with vehicle or test compound and various behavioural parameters of the animals are measured including the number of exploratory rearings made by the mice in each section and the number of times the mice cross lines marked on the floor of each section. For each treatment group the mean number of line crossings and rears in each section of the box are calculated. Differences between drug-treated groups and vehicle-treated controls are compared using Student's unpaired t-test. […] Test compounds are considered to be active if they induce a similar set of changes and, in particular, if they produce a significant (p<0.05) increase in rearing activity in the light section of the box.

Another test has as its target T1, 5-HT3 receptors (Oryctolagus cuniculus, UniProt A0A5F9C9J3).
T1 construct: isolated right atrium of the rabbit heart; from tissue; host or cells: rabbit heart, isolated right atrium (sympathetic nerve terminals)
T1 sequence (A0A5F9C9J3 1-494): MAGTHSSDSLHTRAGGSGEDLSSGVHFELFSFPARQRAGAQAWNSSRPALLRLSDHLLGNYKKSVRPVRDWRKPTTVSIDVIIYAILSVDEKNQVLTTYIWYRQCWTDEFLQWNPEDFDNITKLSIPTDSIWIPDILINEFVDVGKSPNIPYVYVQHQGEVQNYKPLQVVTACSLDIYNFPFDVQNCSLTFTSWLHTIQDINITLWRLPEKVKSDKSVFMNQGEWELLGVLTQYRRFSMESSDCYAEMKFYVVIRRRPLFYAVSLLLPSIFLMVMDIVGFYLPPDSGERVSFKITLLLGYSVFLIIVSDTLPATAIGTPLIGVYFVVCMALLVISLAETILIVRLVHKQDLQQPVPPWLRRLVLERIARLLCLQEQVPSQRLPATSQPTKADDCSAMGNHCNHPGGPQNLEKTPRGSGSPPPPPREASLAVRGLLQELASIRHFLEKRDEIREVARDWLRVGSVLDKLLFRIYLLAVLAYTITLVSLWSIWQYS
In words: 5-HT3 antagonistic activity in the isolated right atrium of the rabbit heart. Conditions: 10^-5 M 5-HT, read-out: -log IC50 (chronotropic response to 10^-5 M 5-HT) (converted). In kind it is cell-based. The procedure: In particular they antagonise specific 5-hydroxytryptamine (5-HT) receptors in warm blooded animals. […] 5-HT3 -antagonists are also termed "antagonists of "neuronal" 5-hydroxytryptamine receptors" and "serotonin (5-hydroxytryptamine) M-receptor antagonists". Such compounds have been described as being useful inter alia in the treatment of migraine, emesis, anxiety, gastrointestinal disorders and as anti-psychotics.
The compounds of the invention are tested for 5-HT3 antagonistic activity in the isolated right atrium of the rabbit heart based upon the method of Fozard J. R., Naunyn-Schmiedeberg's Arch. Pharmacol., 1984, 326, 36-44. This procedure relies upon the ability of 5-HT to stimulate 5-HT3 receptors present on sympathetic nerve terminals in the heart, causing release of noradrenaline which evokes an increase in the spontaneous rate of beating. The antagonist potency is expressed as -log IC50 (where IC50 is the chronotropic response to 10^-5 M 5-HT by 50%)

Where [2] appears, read: 2.0 mg/kg s.c., standard anxiolytic.

For the compound `CNC1=Nc2ccc(Cl)cc2C(c2ccccc2)=[N+]([O-])C1` [Chlordiazepoxide, reference compound], in test [1] (setting [2]), the “% Change Relative to Controls: Line Crossings” value was “+42%” and the “% Change Relative to Controls: Rears” value is recorded as “+77%”.
As for `O=C(Nc1cc(Cl)cc(Cl)c1)NC1CN2CCC1CC2` (stereo not shown) [Example 1], the half-inhibitory concentration (IC50) on 5-HT3 receptors was 5.01 nM. Further, in test [1] (0.1 mg/kg s.c.), the “% Change Relative to Controls: Line Crossings” value is “+40%” and the “% Change Relative to Controls: Rears” value is listed as “+85%”.
For `COc1ccccc1C(=O)NC(=O)NC1CN2CCC1CC2` (stereo not shown) [Example 5, N-[[[1-Azabicyclo[2.2.2]octan-3-yl]amino]carbonyl]-2-methoxybenzamide] the same measures were 2.14 nM, “+20%” and “+73%”.
As to `O=C(Nc1cc(Cl)cc(Cl)c1)N[C@@H]1CN2CCC1CC2` [Example 12, (S)-(-)-N-(1-Azabicyclo[2.2.2]octan-3-yl)-N'-(3,5-dichlorophenyl)urea], the IC50 on 5-HT3 receptors was 0.501 nM. In addition, in test [1] (1.0 mg/kg s.c.), the “% Change Relative to Controls: Line Crossings” value is listed as “+42%” and the “% Change Relative to Controls: Rears” value is given as “+75%”.
As to `O=C(Nc1cc(Cl)cc(Cl)c1)N[C@H]1CN2CCC1CC2` [Example 13, (R)-(+)-N-(1-Azabicyclo[2.2.2]octan-3-yl)-N'-(3,5-dichlorophenyl)urea], in test [1] (0.1 mg/kg s.c.), the “% Change Relative to Controls: Line Crossings” value is listed as “+69%” and the “% Change Relative to Controls: Rears” value was “+90%”.
